Reference: PubChem BioAssay (NCI)
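48-hour exposure; five concentrations; linearly interpolated endpoints. At the GI50, growth is halved. TGI marks complete inhibition of growth.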

Tests used:
Experiment in all cases: NCI tumour cell line growth inhibition, 48 h
[1] = system: NCI-H226 lung
[2] = system: SK-MEL-28 melanoma
[3] = system: SR leukemia
[4] = system: RXF 393 renal
[5] = system: OVCAR-4 ovarian
[6] = system: COLO 205 colon
[7] = system: TK-10 renal
[8] = system: M14 melanoma
[9] = system: PC-3 prostate
[10] = system: T-47D breast

Row | SMILES | TGI [1] [µM] | TGI [2] [µM] | TGI [3] [µM] | TGI [4] [µM] | TGI [5] [µM] | TGI [6] [µM] | TGI [7] [µM] | TGI [8] [µM] | TGI [9] [µM] | GI50 [1] [µM] | GI50 [2] [µM] | GI50 [3] [µM] | GI50 [4] [µM] | GI50 [6] [µM] | GI50 [7] [µM] | GI50 [8] [µM] | GI50 [10] [µM] | TGI [10] [µM] | GI50 [5] [µM] | GI50 [9] [µM]
1 | COc1cc(Br)c(C=Nc2cccc3cc(OC)c(OC)cc23)cc1OC | 82 | > 100 | > 100 | 50.3 | > 100 | > 100 | > 100 | > 100 |  |  |  |  |  |  |  |  |  |  |  | 
2 | CCOc1cccc(/C=N/N=C2\C(=O)Nc3c(Cl)cc(Cl)cc32)c1O | > 100 | > 100 | > 100 | > 100 | > 100 | > 100 | > 100 | > 100 | > 100 |  |  |  |  |  |  |  |  |  |  | 
3 | CC1=C(C(=O)Nc2cc(=O)n(C)c(=O)n2C)C(c2ccco2)C(C(=O)Nc2cc(=O)n(C)c(=O)n2C)=C(C)N1 | > 100 | > 100 |  | > 100 | > 100 | > 100 | > 100 | > 100 |  |  |  |  |  |  |  |  |  |  |  | 
4 | COc1ccc(C23C(=O)c4ccccc4N2O[C@H]2C(=O)N(c4ccccc4)C(=O)[C@H]23)cc1 (stereo not given in full) | > 100 | > 100 |  | > 100 | > 100 | > 100 | > 100 | > 100 |  |  |  |  |  |  |  |  |  |  |  | 
5 | Cc1nnn[n-]1.N.N.N.N.N.[Cl-].[Co+3] | > 100 | > 100 | > 100 | > 100 |  | > 100 | > 100 | > 100 |  | > 100 | > 100 | > 100 | > 100 | > 100 | > 100 | > 100 |  |  |  | 
6 | COC(=O)c1ccc(-c2nc3cc(Cl)c(Cl)cc3nc2C#N)cc1 | > 100 | > 100 |  | > 100 | > 100 | > 100 | > 100 | > 100 | > 100 | > 100 | > 100 |  | > 100 | > 100 | > 100 | > 100 | > 100 | > 100 | > 100 | > 100
7 | O=C1CC(O)CC(=O)C1=C(O)CCCCCCCCCCc1ccccc1 (stereo not given) | 94.7 | > 100 | > 100 | > 100 | > 100 | > 100 | > 100 | > 100 |  |  |  |  |  |  |  |  |  |  |  | 
8 | O=C(O)CCC(=O)N1c2ccccc2CC1c1c[nH]c2ccccc12 (stereo not given) | > 100 | > 100 |  | > 100 | > 100 | > 100 | > 100 | > 100 |  |  |  |  |  |  |  |  |  |  |  | 
9 | O=C1N(C2CCCCC2)CC12CCCCC2 | > 100 | > 100 |  | > 100 | > 100 | > 100 | > 100 | > 100 |  |  |  |  |  |  |  |  |  |  |  | 
10 | CC1=C(c2ccccc2)C(c2ccccc2)=C(c2ccccc2)C2(c3ccccc3)C(=O)C(C)CN12 (stereo not given) | 84.8 | > 100 | > 100 | 63.5 | 50.5 |  |  | > 100 |  |  |  |  |  |  |  |  |  |  |  | 
11 | N.N.N.N.N.NC(=O)c1nn[n-]n1.[Cl-].[Co+3] |  | > 100 | > 100 | > 100 | > 100 | > 100 | > 100 | > 100 |  |  | > 100 | > 100 | > 100 | > 100 | > 100 | > 100 |  |  | > 100 | 
12 | O=C(O)CN(CC(=O)O)Cc1cc(C#Cc2ccc(C#Cc3ccccc3)cc2)cc(CN(CC(=O)O)CC(=O)O)n1 | 58.7 | > 100 | > 62.5 | > 62.7 | 56 | 36.2 | > 86.2 | > 76.6 | 60.9 |  |  |  |  |  |  |  |  |  |  | 
13 | CC1(C)O[C@H]2[C@H](O)C[C@](O)(CO)C[C@H]2O1 | > 100 | > 100 | > 100 | > 100 | > 100 | > 100 | > 100 | > 100 |  |  |  |  |  |  |  |  |  |  |  | 
14 | O=C(COc1ccc(Cl)cc1)N1N=C(c2ccc(Cl)cc2)CC1(O)c1ccccc1 (stereo not given) | 48.1 | 35.3 | 17.7 |  | 21 | 54.6 | > 78 | 34.5 |  |  |  |  |  |  |  |  |  |  |  | 
15 | N.N.N.N.[Co+3].[N-]=[N+]=[N-].[N-]=[N+]=[N-].[N-]=[N+]=[N-] |  | > 100 |  |  | > 100 | > 100 | > 100 | > 100 |  |  | 47.1 |  |  | > 100 | > 100 | > 100 |  |  | > 100 | 
16 | CCOC(=O)N1CCN(/[N+]([O-])=N/Oc2ccc([N+](=O)[O-])cc2[N+](=O)[O-])CC1 | 16.7 | 6.69 |  | 5.9 | 1.78 | 14.4 | 5.57 | 1.43 | 16.7 | 3.77 | 1.82 |  | 1.95 | 0.349 | 0.406 | 0.328 | 8 | > 67.1 | 0.438 | 3.48
17 | CCc1ccccc1NC(=O)C1=C(C)NC(C)=C(C(=O)Nc2ccccc2CC)C1c1ccccc1Cl | > 100 | > 100 |  | > 100 | > 100 | > 100 | > 100 | > 100 |  |  |  |  |  |  |  |  |  |  |  | 
18 | COc1ccc2[nH]cc(-c3ccc(-c4c[nH]c5ccc(OC)cc45)s3)c2c1 | > 42.9 | > 50.2 |  | 13.6 | 23.7 | 11.5 | 21.3 | 18.4 | 9.77 | 8.95 | 12.6 |  | 3.51 | 4.68 | 6.29 | 6.36 | 11.1 | 41.5 | 6.82 | 3.08
19 | O=C(c1ccccc1)c1ccccc1-c1ccccc1 | > 100 | > 100 |  | 22.7 | > 100 | 8.37 | > 100 | 13 | > 100 | 19.6 | 7.52 |  | 3.17 | 2.87 | 6.28 | 1.75 | 6.08 | > 100 | 18.7 | 3.67
